Source: patent US20250099427A1, “Drug and Method of Treating or Preventing Renal Disease Using Drug” (Showa University, priority 2018, published 2025)

Key:
[1] = system: Acute Renal Disease (Cisplatin Nephropathy) Animal Model; test: Test using acute renal disease (cisplatin nephropathy) animal model, BUN and sCr; format: in vivo, mouse; conditions: mean±SE
Description: A male ddY strain mouse (30 to 40 g) was used as an experimental animal. Under anesthesia with isoflurane, cisplatin (20 mg/kg) was injected into the femoral vein at a constant rate over 15 minutes to induce nephropathy. 3 days later, blood was collected from the descending vena cava, and after separating serum, blood urea nitrogen (BUN) and serum creatinine (sCr) were measured to evaluate renal function. Further, the kidney was isolated after perfusion, RNA was extracted, reverse transcription was conducted, real-time RT-PCR was conducted using the produced cDNA as a template, and the effect on TNF-α mRNA expression in renal tissues was also studied. A group to which physiological saline was administered instead of cisplatin was designated as the sham group.
In order to study the timing of administration, a drug (10 mg/kg) was injected into the femoral vein at a constant rate simultaneously with cisplatin, or 1 or 2 days later. In order to study dose relationship, a drug (0.1 mg/kg, 1 mg/kg, or 10 mg/kg) was injected to the femoral vein at a constant rate.
Further, in order to study the effect on TNF-α mRNA expression and histopathological study, a drug (10 mg/kg) was similarly administered 1 day after administration of cisplatin.
The collected blood was centrifuged at 3000 rpm for 15 minutes, serum was separated, and BUN and sCr were measured. In the measurement, BUN was measured using Urea B-test Wako (manufactured by Wako Pure Chemical Industries, Ltd.) and a QuantiChrom Urea Assay Kit (manufactured by Funakoshi Co., Ltd.), and sCr was measured using Lab Assay Creatinine (manufactured by Wako Pure Chemical Industries, Ltd.).
(§1) In Tables 13 to 15, the experimental results are expressed in mean±standard error. The RT-PCR results were corrected with the amount of β-Actin as an endogenous control gene. With reference to statistically significant difference, an unpaired test between two groups (Student's t-test) was conducted for comparison between two groups, and one-way analysis of variance was conducted and then a Dunnett test was conducted for comparison among multiple groups. Further, in the histopathological study, a Mann-Whitney U test was conducted, and in all cases, a significance level of 5% or less (P<0.05) was regarded as significant difference.

[2] = system: Acute Renal Disease (Cisplatin Nephropathy) Animal Model; test: Cisplatin nephropathy model, histopathological study (HE staining); format: in vivo, mouse; conditions: 10 mg/kg 1 day after cisplatin
Description: as §1
10 mg/kg of SMTP-7 was administered 1 day after administration of cisplatin, and 3 days later, the kidney was isolated by the same method as in the evaluation of real time RT-PCR, and the histopathological study was conducted.
Formalin-fixed kidney was permeated with paraffin using an automatic embedding device to produce a paraffin block. The paraffin block was sliced into 3 μm sections with a microtome, and placed on a slide glass. Then, the sections were stretched with a paraffin stretcher at 52° C., and sufficiently dried overnight in a paraffin melter at 37° C. After deparaffinization and washing with water, the sections were stained with a Mayer's hematoxylin staining solution for 1 minute and washed with running water for 15 minutes. Thereafter, the sections were stained with an eosin staining solution for 45 seconds, and dehydrated with 80% to 100% ethanol, followed by clearing with xylene and sealing with marinol. Each specimen was examined microscopically at a magnification of 50 using an optical microscope. The degree of damage was examined microscopically at a magnification of 100 and 5 fields of view (1 field=2 mm, 5 fields=10 mm) and scored according to the following criteria. • Score 0: No significant change • Score 1: damage range 1 mm or less • Score 2: damage range 1 to 2 mm • Score 3: damage range 2 to 5 mm • Score 4: damage range 5 mm or more

[3] = Administration one day later (1 day): 10 mg/kg femoral vein after cisplatin 20 mg/kg, timing study Table 13
[4] = Administration two days later (2 day): 10 mg/kg femoral vein after cisplatin 20 mg/kg
[5] = Coadministration: 10 mg/kg femoral vein simultaneously with cisplatin 20 mg/kg, blood 3 days after cisplatin
[6] = TNF-α study Table 15: 10 mg/kg 1 day after cisplatin
[7] = dose relationship study Table 14: 0.1 mg/kg femoral vein 1 day after cisplatin, 0.1 mg/kg
[8] = dose relationship study Table 14: 1 mg/kg femoral vein 1 day after cisplatin, 1 mg/kg
[9] = dose relationship study Table 14: 1 mg/kg femoral vein 1 day after cisplatin, listed as SMPT-7, 1 mg/kg
[10] = dose relationship study Table 14: 10 mg/kg femoral vein 1 day after cisplatin, 10 mg/kg
[11] = dose relationship study Table 14: 10 mg/kg femoral vein 1 day after cisplatin, listed as SMPT-7, 10 mg/kg
[12] = Score 1: damage range 1 mm or less
[13] = score 0 (no significant change) to 4 (damage range 5 mm or more), N 7

CC(C)=CCC/C(C)=C/CC[C@@]1(C)Oc2c(c(O)cc3c2CN(CCC[C@@H](C(=O)O)N2Cc4c(cc(O)c5c4O[C@](C)(CC/C=C(\C)CCC=C(C)C)[C@@H](O)C5)C2=O)C3=O)C[C@@H]1O [SMTP-7]
BUN [1, 3]: 44.5 ± 2.19 mg/dL | sCr [1, 3]: 0.80 ± 0.07 mg/dL | BUN [1, 4]: 74.2 ± 17.8 mg/dL | sCr [1, 4]: 0.78 ± 0.18 mg/dL | BUN [1, 5]: 66.3 ± 9.23 mg/dL | sCr [1, 5]: 0.81 ± 0.09 mg/dL | BUN [1, 6]: 55.9 ± 5.20 mg/dL | sCr [1, 6]: 0.41 ± 0.07 mg/dL | BUN [1, 7]: 57.0 ± 5.47 mg/dL | sCr [1, 7]: 0.78 ± 0.08 mg/dL | BUN [1, 8]: 45.0 ± 6.28 mg/dL | sCr [1, 8]: 0.65 ± 0.09 mg/dL | BUN [1, 9]: 45.0 ± 6.28 mg/dL | sCr [1, 9]: 0.65 ± 0.09 mg/dL | BUN [1, 10]: 32.1 ± 4.63 mg/dL | sCr [1, 10]: 0.53 ± 0.03 mg/dL | BUN [1, 11]: 32.1 ± 4.63 mg/dL | sCr [1, 11]: 0.53 ± 0.03 mg/dL | Degeneration Necrosis, animals with Score 0 ([2]; Score 0: No significant change): 2/7 | Regeneraed tubules, animals with Score 0 ([2]; Score 0: No significant change): 7/7 | Tublar dilatatuon (Hyoline casts), animals with Score 0 ([2]; Score 0: No significant change): 6/7 | Degeneration Necrosis, animals with Score 1 [2, 12]: 2/7 | Tublar dilatatuon (Hyoline casts), animals with Score 1 [2, 12]: 1/7 | Degeneration Necrosis, animals with Score 2 ([2]; Score 2: damage range 1 to 2 mm): 1/7 | Degeneration Necrosis, animals with Score 3 ([2]; Score 3: damage range 2 to 5 mm): 1/7 | Degeneration Necrosis, animals with Score 4 ([2]; Score 4: damage range 5 mm or more): 1/7 | Histopathological changes in the proximal tubules, result in words ([2]; compared to Control group): the level was lower than that in the Control group and no significant difference was recognized | Degeneration Necrosis, Mean score [2, 13]: 1.6 | Regeneraed tubules, Mean score [2, 13]: 0.0 | Tublar dilatatuon (Hyoline casts), Mean score [2, 13]: 0.1
